From patent US20250034159A1, “INHIBITORS OF EPIDERMAL GROWTH FACTOR RECEPTOR” (ORIC Pharmaceuticals, Inc., priority 2021, published 2025)
Like-named read-outs stand apart in the source and are kept apart here.

What was measured:
[1] = target: recombinant human EGFR L858R/C797S double mutant protein (Homo sapiens (Human), UniProt P00533, C797S/L858R); experiment: Biological Activity Assay B: biochemical assay against EGFR L858R/C797S protein (EGFR LR/CS)
Description: In Row A of a 384-well polypropylene plate, was added 48 μL of DMSO. In wells A1 and A24, were added 12 μL of DMSO. […] To a well in Row A were added 12 μL of each 10 mM test compound stock (100% DMSO). […] The final intermediate dilution plate contained 4×16-point compound serial dilutions in assay buffer. The DMSO concentration was 10%. The intermediate compound dilution plate was transferred to the Bravo and the “5 uL dispense into ARP.pro” protocol was run. To the black low volume assay ready plates, were added 5 μL of 40 uM Phosphosens peptide sensor/4 mM ATP working solution to each well. […] To column 24, was added 10 μL of assay buffer. The final DMSO concentration was 2.5%. […] The plates were sealed with the TopSeal-A Plus plate seals. […] Set for 90 cycles with 120 second interval. […] The slope of each curve was constructed using Dotmatics in each well, and each IC50s was calculated using a 4-parameter fit model.

[2] = system: BaF3_EGFR LR/CS cells; experiment: Biological Activity Assay D: BaF3 cell proliferation assay, EGFR L858R/C797S mutant (BaF3 LR/CS); format: cell-based; conditions: Ba/F3 EGFR, read-out: BaF3 LR/CS IC50
[3] = system: Ba/F3_EGFR WT cells; experiment: Biological Activity Assay D: BaF3 cell proliferation assay, EGFR wild-type (BaF3 WT); format: cell-based; conditions: Ba/F3 EGFR, read-out: BaF3 WT IC50
[4] = system: BaF3_EGFR d19/CS cells; experiment: Biological Activity Assay D: BaF3 cell proliferation assay, EGFR exon 19 deletion/C797S (BaF3 d19/CS); format: cell-based; conditions: Ba/F3 EGFR, read-out: BaF3 d19/CS IC50
[5] = target: recombinant human EGFR exon 19 deletion/C797S double mutant protein (Homo sapiens (Human), UniProt P00533, C797S/DEL746-750); experiment: Biological Activity Assay C: biochemical assay against EGFR exon 19 deletion/C797S protein (EGFR d19/CS)
Chain of recombinant human EGFR exon 19 deletion/C797S double mutant protein (P00533 other isoform, or with tags, fused parts or gaps C797S/del 1-668/del 746-750 limits assumed): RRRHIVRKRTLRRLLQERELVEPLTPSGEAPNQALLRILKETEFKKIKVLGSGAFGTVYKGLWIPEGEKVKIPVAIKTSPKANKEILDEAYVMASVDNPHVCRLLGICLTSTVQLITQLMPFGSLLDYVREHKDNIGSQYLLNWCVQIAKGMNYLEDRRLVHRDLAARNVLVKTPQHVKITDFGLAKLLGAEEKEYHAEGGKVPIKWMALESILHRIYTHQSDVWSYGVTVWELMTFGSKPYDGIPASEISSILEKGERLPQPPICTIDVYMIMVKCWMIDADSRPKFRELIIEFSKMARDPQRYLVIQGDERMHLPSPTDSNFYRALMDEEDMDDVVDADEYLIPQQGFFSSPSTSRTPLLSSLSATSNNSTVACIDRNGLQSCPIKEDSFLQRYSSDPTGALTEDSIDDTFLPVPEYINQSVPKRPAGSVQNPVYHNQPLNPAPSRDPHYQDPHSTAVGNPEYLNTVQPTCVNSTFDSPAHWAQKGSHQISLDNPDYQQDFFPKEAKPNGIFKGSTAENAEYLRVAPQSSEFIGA
How it was run: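 IC50 values were fitted with a 4-parameter model to reaction slopes taken from 90 kinetic reads spaced 120 s apart. The Phosphosens sensor/ATP working solution was 40 uM/4 mM, and compound was dosed as 16-point dilutions at 2.5% final DMSO.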

[6] = BaF3_EGFR LR/CS cells, ~72 hours, CellTiter-Glo
[7] = Ba/F3_EGFR WT cells, ~72 hours, CellTiter-Glo
[8] = BaF3_EGFR d19/CS cells, ~72 hours, CellTiter-Glo

Chain of recombinant human EGFR L858R/C797S double mutant protein (P00533 25-1210 C797S/L858R): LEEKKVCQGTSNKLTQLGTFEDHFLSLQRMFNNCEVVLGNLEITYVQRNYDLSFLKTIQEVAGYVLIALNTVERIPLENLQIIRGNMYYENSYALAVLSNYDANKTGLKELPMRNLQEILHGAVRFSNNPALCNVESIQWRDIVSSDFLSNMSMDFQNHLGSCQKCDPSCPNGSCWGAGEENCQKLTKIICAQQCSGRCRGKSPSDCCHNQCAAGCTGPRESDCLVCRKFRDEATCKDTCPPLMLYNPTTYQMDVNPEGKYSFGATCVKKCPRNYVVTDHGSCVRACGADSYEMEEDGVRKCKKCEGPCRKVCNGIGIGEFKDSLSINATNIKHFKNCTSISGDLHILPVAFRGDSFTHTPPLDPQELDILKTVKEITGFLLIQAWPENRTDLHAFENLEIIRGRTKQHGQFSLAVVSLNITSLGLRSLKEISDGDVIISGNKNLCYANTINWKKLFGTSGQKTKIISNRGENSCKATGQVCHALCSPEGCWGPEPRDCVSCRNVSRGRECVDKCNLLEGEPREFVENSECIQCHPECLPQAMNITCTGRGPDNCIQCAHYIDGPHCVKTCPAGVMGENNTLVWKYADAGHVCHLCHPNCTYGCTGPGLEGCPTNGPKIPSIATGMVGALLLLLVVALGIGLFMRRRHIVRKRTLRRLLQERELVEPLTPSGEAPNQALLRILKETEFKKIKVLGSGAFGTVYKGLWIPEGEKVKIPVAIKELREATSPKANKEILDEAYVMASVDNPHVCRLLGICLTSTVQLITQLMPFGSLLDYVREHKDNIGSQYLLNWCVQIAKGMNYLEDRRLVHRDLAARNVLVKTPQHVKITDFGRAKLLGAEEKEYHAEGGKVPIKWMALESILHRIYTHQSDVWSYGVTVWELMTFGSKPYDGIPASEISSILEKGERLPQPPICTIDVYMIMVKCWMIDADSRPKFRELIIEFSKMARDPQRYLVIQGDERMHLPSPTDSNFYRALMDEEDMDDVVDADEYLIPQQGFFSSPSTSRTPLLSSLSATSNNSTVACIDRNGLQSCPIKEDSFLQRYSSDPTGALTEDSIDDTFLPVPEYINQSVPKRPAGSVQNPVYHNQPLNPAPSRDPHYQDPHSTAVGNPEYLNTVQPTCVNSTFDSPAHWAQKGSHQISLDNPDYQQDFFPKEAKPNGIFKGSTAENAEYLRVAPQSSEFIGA

| SMILES | IC50 [1] | IC50 [2, 6] | IC50 [3, 7] | IC50 [4, 8] | IC50 [5] | IC50 ([2]; 72 h) | IC50 ([3]; 72 h) | IC50 ([4]; 72 h) |
| --- | --- | --- | --- | --- | --- | --- | --- | --- |
| O=S1(=O)CCC(Cn2cc(-c3ncnc4oc(-c5ccccc5)cc34)c(-c3ccc(F)cc3)n2)C1 (racemic) [Example 53, 3-{[3-(4-fluorophenyl)-4-(6-phenylfuro[2,3-d]pyrimidin-4-yl)-1H-pyrazol-1-yl]methyl}-1λ6-thiolane-1,1-dione] | 0.462 nM | 122 nM | 2130 nM | 40.8 nM | 0.538 nM |  |  |  |
| Fc1ccc(-c2nn(C3CCOC3)cc2-c2ncnc3oc(-c4ccccc4)cc23)cc1 (racemic) [Example 85, 4-[3-(4-Fluorophenyl)-1-(oxolan-3-yl)-1H-pyrazol-4-yl]-6-phenylfuro[2,3-d]pyrimidine] | 0.58 nM | 27.5 nM | 1860 nM | 33.8 nM | 0.39 nM |  |  |  |
| CS(=O)(=O)N1CCC(n2cc(-c3ncnc4oc(-c5ccccc5)cc34)c(-c3ccc(F)cc3)n2)C1 (racemic) [Example 89, 4-{3-(4-fluorophenyl)-1-[1-(methanesulfonyl)pyrrolidin-3-yl]-1H-pyrazol-4-yl}-6-phenylfuro[2,3-d]pyrimidine] | 0.38 nM | 19.9 nM | 373 nM | 20.4 nM | 0.3 nM |  |  |  |
| O=S1(=O)CCCC(Cn2cc(-c3ncnc4oc(-c5ccccc5)cc34)c(-c3ccc(F)cc3)n2)C1 (racemic) [Example 115, 3-{[3-(4-Fluorophenyl)-4-(6-phenylfuro[2,3-d]pyrimidin-4-yl)-1H-pyrazol-1-yl]methyl}-1λ6-thiane-1,1-dione] | 0.41 nM | 31.6 nM | 703 nM | 110 nM | 0.31 nM |  |  |  |
| O=S1(=O)CC[C@@H](n2cc(-c3ncnc4oc(-c5ccccc5)cc34)c(-c3ccc(F)cc3)n2)C1 (single isomer, unassigned) [Example 72] | 0.65 nM | 26.1 nM | 1340 nM | 24.2 nM | 0.36 nM |  |  |  |
| O=S1(=O)CC[C@H](n2cc(-c3ncnc4oc(-c5ccccc5)cc34)c(-c3ccc(F)cc3)n2)C1 (single isomer, unassigned) [Example 73] | 0.77 nM | 80.9 nM | 2490 nM | 56 nM | 0.48 nM |  |  |  |
| Fc1ccc(-c2nn([C@@H]3CCOC3)cc2-c2ncnc3oc(-c4ccccc4)cc23)cc1 (single isomer, unassigned) [Example 90] | 0.51 nM | 36.2 nM | 1510 nM | 64.9 nM | 0.24 nM |  |  |  |
| Fc1ccc(-c2nn([C@H]3CCOC3)cc2-c2ncnc3oc(-c4ccccc4)cc23)cc1 (single isomer, unassigned) [Example 91] | 0.37 nM | 23.8 nM | 1280 nM | 39.9 nM | 0.23 nM |  |  |  |
| O=S1(=O)CC[C@H](Cn2cc(-c3ncnc4oc(-c5ccccc5)cc34)c(-c3ccc(F)cc3)n2)C1 (single isomer, unassigned) [Example 96] | 0.39 nM | 73.8 nM | 1480 nM | 150 nM | 0.62 nM |  |  |  |
| O=S1(=O)CC[C@@H](Cn2cc(-c3ncnc4oc(-c5ccccc5)cc34)c(-c3ccc(F)cc3)n2)C1 (single isomer, unassigned) [Example 97] | 0.33 nM | 39.2 nM | 1190 nM | 79.4 nM | 0.34 nM |  |  |  |
| O=S1(=O)CCC[C@@H](n2cc(-c3ncnc4oc(-c5ccccc5)cc34)c(-c3ccc(F)cc3)n2)C1 (single isomer, unassigned) [Example 99] | 5.7 nM | 822 nM | > 20000 nM | 701 nM | 8.51 nM |  |  |  |
| OCCCn1cc(-c2ncnc3sc(-c4ccccc4)cc23)c(-c2ccc(F)cc2)n1 [Example 68, 3-[3-(4-fluorophenyl)-4-(6-phenylthieno[2,3-d]pyrimidin-4-yl)-1H-pyrazol-1-yl]propan-1-ol] | 5.49 nM | 203 nM |  | 723 nM | 2.25 nM |  |  |  |
| Fc1ccc(-c2nn(C3COC3)cc2-c2ncnc3oc(-c4ccccc4)nc23)cc1 [Example 80, 7-[3-(4-fluorophenyl)-1-(oxetan-3-yl)-1H-pyrazol-4-yl]-2-phenyl[1,3]oxazolo[5,4-d]pyrimidine] | 6.38 nM | 143 nM |  | 388 nM | 3.25 nM |  |  |  |
| Cn1cnc(-c2cc3c(-c4cn([C@H]5C[C@H](O)C5)nc4-c4ccc(F)cc4)ncnc3o2)c1 [Example 278, (1r,3r)-3-{3-(4-fluorophenyl)-4-[6-(1-methyl-1H-imidazol-4-yl)furo[2,3-d]pyrimidin-4-yl]-1H-pyrazol-1-yl}cyclobutan-1-ol] |  | 5.14 nM | 272 nM | 4.31 nM | 0.123 nM |  |  |  |
| Cc1nn(C)cc1-c1cc2c(-c3cn([C@H]4C[C@H](C#N)C4)nc3-c3ccc(F)cc3)ncnc2o1 [Example 279, (1r,3r)-3-{4-[6-(1,3-dimethyl-1H-pyrazol-4-yl)furo[2,3-d]pyrimidin-4-yl]-3-(4-fluorophenyl)-1H-pyrazol-1-yl}cyclobutane-1-carbonitrile] |  | 8.89 nM | 476 nM | 5.64 nM | 0.106 nM |  |  |  |
| Cc1nn(C)c(C(F)F)c1-c1cc2c(-c3cn(CC(C)(C)O)nc3-c3ccc(F)cc3)ncnc2o1 [Example 280, 1-[4-{6-[5-(difluoromethyl)-1,3-dimethyl-1H-pyrazol-4-yl]furo[2,3-d]pyrimidin-4-yl}-3-(4-fluorophenyl)-1H-pyrazol-1-yl]-2-methylpropan-2-ol] |  | 38.2 nM | 857 nM | 31.7 nM | 0.288 nM |  |  |  |
| CC(C)(O)Cn1cc(-c2ncnc3oc(-c4cccc(F)n4)cc23)c(-c2ccc(F)cc2)n1 [Example 281, 1-{3-(4-fluorophenyl)-4-[6-(6-fluoropyridin-2-yl)furo[2,3-d]pyrimidin-4-yl]-1H-pyrazol-1-yl}-2-methylpropan-2-ol] |  |  |  |  | 0.425 nM | 80.7 nM | 1840 nM | 57.1 nM |
| Cc1nc(-c2cc3c(-c4cn(CC(C)(C)O)nc4-c4ccc(F)cc4)ncnc3o2)ccc1F [Example 282, 1-{4-[6-(5-fluoro-6-methylpyridin-2-yl)furo[2,3-d]pyrimidin-4-yl]-3-(4-fluorophenyl)-1H-pyrazol-1-yl}-2-methylpropan-2-ol] |  | 62.9 nM | 1980 nM | 40.7 nM | 0.307 nM |  |  |  |
| CC(C)(O)Cn1cc(-c2ncnc3oc(-c4cccnc4O)cc23)c(-c2ccc(F)cc2)n1 [Example 283, 3-{4-[3-(4-fluorophenyl)-1-(2-hydroxy-2-methylpropyl)-1H-pyrazol-4-yl]furo[2,3-d]pyrimidin-6-yl}pyridin-2-ol] |  | 9.79 nM | 657 nM | 9.47 nM | 0.113 nM |  |  |  |
| CC(C)(O)Cn1cc(-c2ncnc3oc(-c4cnn5c4OCCC5(C)C)cc23)c(-c2ccc(F)cc2)n1 [Example 284, 1-(4-(6-(7,7-dimethyl-6,7-dihydro-5H-pyrazolo[5,1-b][,3]oxazin-3-yl)furo[2,3-d]pyrimidin-4-yl)-3-(4-fluorophenyl)-1H-pyrazol-1-yl)-2-methylpropan-2-ol] |  | 11.2 nM | 1000 nM | 10.2 nM | 0.203 nM |  |  |  |
| COc1ncccc1-c1cc2c(-c3cn(CCC#N)nc3-c3ccc(F)cc3)ncnc2o1 [Example 285, 3-{3-(4-fluorophenyl)-4-[6-(2-methoxypyridin-3-yl)furo[2,3-d]pyrimidin-4-yl]-1H-pyrazol-1-yl}propanenitrile] |  | 4.86 nM | 321 nM | 3.75 nM | 0.228 nM |  |  |  |
| COc1ncccc1-c1cc2c(-c3cn(CC(F)(F)CO)nc3-c3ccc(F)cc3)ncnc2o1 [Example 286, 2,2-difluoro-3-{3-(4-fluorophenyl)-4-[6-(2-methoxypyridin-3-yl)furo[2,3-d]pyrimidin-4-yl]-1H-pyrazol-1-yl}propan-1-ol] |  | 20.1 nM | 1110 nM | 15.8 nM | 0.203 nM |  |  |  |
| Oc1ncccc1-c1cc2c(-c3cn([C@H]4C[C@@H](F)C4)nc3-c3ccc(F)cc3)ncnc2o1 [Example 287, 3-(4-{1-[(1s,3s)-3-fluorocyclobutyl]-3-(4-fluorophenyl)-1H-pyrazol-4-yl}furo[2,3-d]pyrimidin-6-yl)pyridin-2-ol] |  | 8.63 nM | 613 nM | 8.85 nM | 0.213 nM |  |  |  |
